Test results: patent publication US20230257354A1, “NOVEL HETEROCYCLIC COMPOUNDS” (Hoffmann-La Roche Inc., priority 2020, published 2023)
Counter-ions that a name gives are not always drawn.

System: Acinetobacter baumannii ATCC17978
Assay: Antimicrobial susceptibility testing, 90% growth inhibitory concentration (IC90) determination, ATCC17978
Type: cell-based
Details: Iso-Sensitest broth, OD 600 nm over 16 h, 35±2° C., read-out: ATCC 17978 IC90
Protocol: Antimicrobial Susceptibility Testing: 90% Growth Inhibitory Concentration (IC90) Determination The in vitro antimicrobial activity of the compounds was determined according to the following procedure: The assay used a 10-points Iso-Sensitest broth medium to measure quantitatively the in vitro activity of the compounds against Acinetobacter baumannii ATCC17978 or ATCC17961. Stock compounds in DMSO were serially twofold diluted (e.g. range from 50 to 0.097 μM final concentration) in 384 wells microtiter plates and inoculated with 49 μl the bacterial suspension in Iso-Sensitest medium to have a final cell concentration of ˜5×10^(5) CFU/ml in a final volume/well of 50 ul/well. Microtiter plates were incubated at 35±2° C. Bacterial cell growth was determined with the measurement of optical density at X=600 nm each 20 minutes over a time course of 16 h. Growth inhibition was calculated during the logarithmic growth of the bacterial cells with determination of the concentration inhibiting 50% (IC50) and 90% (IC90) of the growth. Table 1 provides the 90% growth inhibitory concentrations (IC90) in micromoles per liter of the compounds of present invention obtained against the strain Acinetobacter baumannii ATCC17978.

Row | Structure (SMILES) | IC90
1 | CCc1cc(NC(=O)c2ncc(-c3ccc(OCC(N)=O)c(F)c3F)n2C)ccc1C(=O)NCCOCCN [Example A21, N-[4-[2-(2-aminoethoxy)ethylcarbamoyl]-3-ethyl-phenyl]-5-[4-(2-amino-2-oxo-ethoxy)-2,3-difluoro-phenyl]-1-methyl-imidazole-2-carboxamide;hydrochloride] | 4700 nM
2 | Cn1c(-c2ccc(OCC#N)c(F)c2F)cnc1C(=O)Nc1ccc(C(=O)NCCNC(=O)C2CCNCC2)c(Cl)c1 [Example B15, N-[2-[[2-chloro-4-[[5-[4-(cyanomethoxy)-2,3-difluoro-phenyl]-1-methyl-imidazole-2-carbonyl]amino]benzoyl]amino]ethyl]piperidine-4-carboxamide;2,2,2-trifluoroacetic acid] | 360 nM
3 | COc1ccc(-c2cnc(C(=O)Nc3ccc(C(=O)NC4CCN(C(=O)CCOCCN)CC4)c(Cl)c3)n2C)c(F)c1F [Example B8, N-[4-[[1-[3-(2-aminoethoxy)propanoyl]-4-piperidyl]carbamoyl]-3-chloro-phenyl]-5-(2,3-difluoro-4-methoxy-phenyl)-1-methyl-imidazole-2-carboxamide;formic acid] | 140 nM
4 | Cc1cc(NC(=O)c2ncc(-c3ccc(OCC#N)c(F)c3F)n2C)ccc1C(=O)NCCNC(=O)[C@H]1C[C@@](C)(O)CN1 [Example B24, 5-[4-(cyanomethoxy)-2,3-difluoro-phenyl]-N-[4-[2-[[(2R,4R)-4-hydroxy-4-methyl-pyrrolidine-2-carbonyl]amino]ethylcarbamoyl]-3-methyl-phenyl]-1-methyl-imidazole-2-carboxamide;formic acid] | 1000 nM
5 | CNC(=O)c1ccc(NC(=O)c2ncc(-c3ccc(OC)cc3)n2C)cc1C [Example D1, 5-(4-Methoxyphenyl)-1-methyl-N-[3-methyl-4-(methylcarbamoyl)phenyl]imidazole-2-carboxamide] | 3200 nM
6 | COc1ccc(-c2cnc(C(=O)Nc3ccc(C(=O)N[C@H]4C[C@@H](NC(=O)C5C[C@@H](O)CN5)C4)c(Cl)c3)n2C)c(F)c1F (stereo in doubt) [Example B38, N-[3-chloro-4-[[3-[[(4R)-4-hydroxypyrrolidine-2-carbonyl]amino]cyclobutyl]carbamoyl]phenyl]-5-(2,3-difluoro-4-methoxy-phenyl)-1-methyl-imidazole-2-carboxamide;formic acid] | 55 nM
7 | Cn1c(-c2ccc(OC(F)F)c(F)c2F)cnc1C(=O)Nc1ccc(C(=O)NCCC2CN(CC3CNC3)C2)c(Cl)c1 [Example C1, N-[4-[2-[1-(Azetidin-3-ylmethyl)azetidin-3-yl]ethylcarbamoyl]-3-chloro-phenyl]-5-[4-(difluoromethoxy)-2,3-difluoro-phenyl]-1-methyl-imidazole-2-carboxamide;2,2,2-trifluoroacetic acid] | 830 nM
8 | COc1ccc(-c2cnc(C(=O)Nc3ccc(C(=O)NC4CCN(C(=O)C5CCNCC5)C4)c(Cl)c3)n2C)c(F)c1F (stereo not shown) [Example B1, N-[3-Chloro-4-[[1-(piperidine-4-carbonyl)pyrrolidin-3-yl]carbamoyl]phenyl]-5-(2,3-difluoro-4-methoxy-phenyl)-1-methyl-imidazole-2-carboxamide; formic acid] | 110 nM
9 | CC[C@]1(O)CN[C@@H](C(=O)NCCNC(=O)c2ccc(NC(=O)c3ncc(-c4ccc(OCC#N)c(F)c4F)n3C)cc2Cl)C1 [Example B37, N-[3-chloro-4-[2-[[(2R,4R)-4-ethyl-4-hydroxy-pyrrolidine-2-carbonyl]amino]ethylcarbamoyl]phenyl]-5-[4-(cyanomethoxy)-2,3-difluoro-phenyl]-1-methyl-imidazole-2-carboxamide;formic acid] | 850 nM
10 | Cn1c(-c2ccc(OCC#N)c(F)c2F)cnc1C(=O)Nc1ccc(C(=O)NCCNC(=O)[C@H]2CCNC[C@H]2O)c(Cl)c1 [Example B33, (3S,4S)-N-[2-[[2-chloro-4-[[5-[4-(cyanomethoxy)-2,3-difluoro-phenyl]-1-methyl-imidazole-2-carbonyl]amino]benzoyl]amino]ethyl]-3-hydroxy-piperidine-4-carboxamide;formic acid] | 1100 nM
